Our source for the Activity and inhibition of growth values is ChEMBL document CHEMBL3046252, “Synthesis and herbicidal potential of substituted aurones” (2012).

Holding throughout (type): functional
Experiment [1] has as its system Echinochloa crus-galli. Briefly: Herbicidal activity against Echinochloa crus-galli (barnyard grass) plants assessed as germination rate at 1000 ug/ml measured on second day post dose (reference value: 100%).
Experiment [2] deals with Brassica rapa subsp. oleifera. Kind of experiment: Post-emergence herbicidal activity against Brassica rapa subsp. oleifera seedlings assessed as inhibition of plant fresh weight growth at 1500 g/ha applied through spraying under greenhouse conditions. Conditions: read-out: GI.
Experiment [3] deals with Digitaria sanguinalis. Kind of experiment: Post-emergence herbicidal activity against Digitaria sanguinalis (hairy crabgrass) seedlings assessed as inhibition of plant fresh weight growth at 1500 g/ha applied through spraying under greenhouse conditions. The conditions noted are these: read-out: GI.
For experiment [4], the system named is Echinochloa crus-galli. Kind of experiment: Herbicidal activity against Echinochloa crus-galli (barnyard grass) plants assessed as inhibition of seedling growth at 100 ug/ml after 65 hr by barnyard cup test. The conditions noted are these: read-out: GI.
Experiment [5] concerns Paraixeris denticulata. Briefly: Herbicidal activity against Paraixeris denticulata assessed as germination rate at 1000 ug/ml measured on second day post dose (reference value: 76.7 +/- 0.3%).
For experiment [6], the system named is Paraixeris denticulata. Briefly: Herbicidal activity against Paraixeris denticulata assessed as germination rate at 1000 ug/ml measured on first day post dose (reference value: 30.8 +/- 1.2%).
Experiment [7] has as its system Echinochloa crus-galli. Briefly: Herbicidal activity against Echinochloa crus-galli (barnyard grass) plants assessed as inhibition of seedling growth at 1000 ug/ml after 65 hr by barnyard cup test. Conditions: read-out: GI.
The subject of experiment [8] is Echinochloa crus-galli. Briefly: Pre-emergence herbicidal activity against Echinochloa crus-galli (barnyard grass) assessed as inhibition of plant fresh weight growth at 1500 g/ha applied to soil through spraying under greenhouse conditions. Conditions: read-out: GI.
For experiment [9], the system named is Paraixeris denticulata. Kind of experiment: Herbicidal activity against Paraixeris denticulata assessed as germination rate at 1000 ug/ml measured on fourth day post dose (reference value: 100%).
The test system of experiment [10] is Echinochloa crus-galli. Briefly: Post-emergence herbicidal activity against Echinochloa crus-galli (barnyard grass) seedlings assessed as inhibition of plant fresh weight growth at 1500 g/ha applied through spraying under greenhouse conditions. Conditions: read-out: GI.
Experiment [11] relates to Amaranthus retroflexus. Kind of experiment: Pre-emergence herbicidal activity against Amaranthus retroflexusassessed as inhibition of plant fresh weight growth at 1500 g/ha applied to soil through spraying under greenhouse conditions. Conditions: read-out: GI.
The test system of experiment [12] is Paraixeris denticulata. Briefly: Herbicidal activity against Paraixeris denticulata assessed as germination rate at 1000 ug/ml measured on third day post dose (reference value: 97.4 +/- 0.6%).
In experiment [13] the test system is Digitaria sanguinalis. Kind of experiment: Pre-emergence herbicidal activity against Digitaria sanguinalis (hairy crabgrass) assessed as inhibition of plant fresh weight growth at 1500 g/ha applied to soil through spraying under greenhouse conditions. Conditions: read-out: GI.
Experiment [14] concerns Amaranthus retroflexus. Briefly: Post-emergence herbicidal activity against Amaranthus retroflexus seedlings assessed as inhibition of plant fresh weight growth at 1500 g/ha applied through spraying under greenhouse conditions. Conditions: read-out: GI.
Experiment [15] deals with Brassica rapa subsp. oleifera. Briefly: Pre-emergence herbicidal activity against Brassica rapa subsp. oleifera assessed as inhibition of plant fresh weight growth at 1500 g/ha applied to soil through spraying under greenhouse conditions. The conditions noted are these: read-out: GI.
In experiment [16] the test system is Brassica rapa subsp. oleifera. Kind of experiment: Herbicidal activity against Brassica rapa subsp. oleifera assessed as inhibition of root growth at 1000 ug/ml after 65 hr by rape cup test. Conditions: read-out: GI.
For experiment [17], the system named is Echinochloa crus-galli. Kind of experiment: Herbicidal activity against Echinochloa crus-galli (barnyard grass) plants assessed as germination rate at 1000 ug/ml measured on first day post dose (reference value: 49.1 +/- 1.6%).
The test system of experiment [18] is Brassica rapa subsp. oleifera. Kind of experiment: Herbicidal activity against Brassica rapa subsp. oleifera assessed as inhibition of root growth at 100 ug/ml after 65 hr by rape cup test. Conditions: read-out: GI.
Experiment [19] has as its system Digitaria sanguinalis. Kind of experiment: Herbicidal activity against Digitaria sanguinalis (hairy crabgrass) assessed as germination rate at 1000 ug/ml measured on third day post dose (reference value: 100%).
For experiment [20], the system named is Digitaria sanguinalis. Briefly: Herbicidal activity against Digitaria sanguinalis (hairy crabgrass) assessed as germination rate at 1000 ug/ml measured on second day post dose (reference value: 100%).
For experiment [21], the system named is Brassica rapa subsp. oleifera. Kind of experiment: Herbicidal activity against Brassica rapa subsp. oleifera assessed as inhibition of root growth at 10 ug/ml after 65 hr by rape cup test. The conditions noted are these: read-out: GI.
The test system of experiment [22] is Digitaria sanguinalis. Briefly: Herbicidal activity against Digitaria sanguinalis (hairy crabgrass) assessed as germination rate at 1000 ug/ml measured on first day post dose (reference value: 0%).
For experiment [23], the system named is Echinochloa crus-galli. Briefly: Post-emergence herbicidal activity against Echinochloa crus-galli (barnyard grass) seedlings assessed as inhibition of plant fresh weight growth at 150 g/ha applied through spraying under greenhouse conditions. The conditions noted are these: read-out: GI.
Experiment [24] has as its system Brassica rapa subsp. oleifera. Briefly: Pre-emergence herbicidal activity against Brassica rapa subsp. oleifera assessed as inhibition of plant fresh weight growth at 150 g/ha applied to soil through spraying under greenhouse conditions. Conditions: read-out: GI.
Experiment [25] concerns Digitaria sanguinalis. Briefly: Pre-emergence herbicidal activity against Digitaria sanguinalis (hairy crabgrass) assessed as inhibition of plant fresh weight growth at 150 g/ha applied to soil through spraying under greenhouse conditions. The conditions noted are these: read-out: GI.
In experiment [26] the test system is Echinochloa crus-galli. Kind of experiment: Pre-emergence herbicidal activity against Echinochloa crus-galli (barnyard grass) assessed as inhibition of plant fresh weight growth at 150 g/ha applied to soil through spraying under greenhouse conditions. Conditions: read-out: GI.
Experiment [27] deals with Digitaria sanguinalis. Briefly: Post-emergence herbicidal activity against Digitaria sanguinalis (hairy crabgrass) seedlings assessed as inhibition of plant fresh weight growth at 150 g/ha applied through spraying under greenhouse conditions. Conditions: read-out: GI.
The subject of experiment [28] is Amaranthus retroflexus. Kind of experiment: Post-emergence herbicidal activity against Amaranthus retroflexus seedlings assessed as inhibition of plant fresh weight growth at 150 g/ha applied through spraying under greenhouse conditions. The conditions noted are these: read-out: GI.
Experiment [29] relates to Amaranthus retroflexus. Kind of experiment: Pre-emergence herbicidal activity against Amaranthus retroflexus assessed as inhibition of plant fresh weight growth at 150 g/ha applied to soil through spraying under greenhouse conditions. The conditions noted are these: read-out: GI.
Experiment [30] deals with Brassica rapa subsp. oleifera. Kind of experiment: Post-emergence herbicidal activity against Brassica rapa subsp. oleifera seedlings assessed as inhibition of plant fresh weight growth at 150 g/ha applied through spraying under greenhouse conditions. Conditions: read-out: GI.

Consider `COc1cc(OC)c2c(c1)O/C(=C\c1ccccc1F)C2=O`, for which the Activity in experiment [1] was 100%; in experiment [5], 58.9%; in [6] it was 17.8%; in experiment [9] it was 100%; in experiment [12] it was 76.7%; in experiment [17], 11.4%. Further, the inhibition of growth at 1500 g/ha in experiment [2] came out at 0%; in [3], 0%; in [8] it was 15%; in experiment [10], 6.5%; in [11], 10%; in experiment [13] it was 0%. Besides, the inhibition of growth at 1500 g/ha worked out at 40.1% in experiment [14] and 0% in [15]. In addition, the inhibition of growth at 100 µg/mL in [4] was 15%; in experiment [18], 74.7%. The inhibition of growth at 1000 µg/mL in experiment [7] was 45%; in experiment [16], 86.8%.

On to `CCOc1cc(OCC)c2c(c1)O/C(=C\c1ccc(OCc3ccccc3)c(OC)c1)C2=O`, for which the inhibition of growth at 1500 g/ha in [2] was 0%; in [3], 5%; in experiment [8], 0%; in [10], 7.9%; in experiment [11], 5%; in [13], 10%. For the same compound, the inhibition of growth at 1500 g/ha in experiment [14] and in [15] was 0% each time. Also, the inhibition of growth at 100 µg/mL worked out at 15% in experiment [4] and 79.2% in experiment [18]. The figures for the inhibition of growth at 1000 µg/mL in [7] and in [16] were 26.7% and 72.6%, respectively.

Regarding `COc1cc(/C=C2\Oc3cc(OC)c(C)c(OC)c3C2=O)ccc1OCc1ccccc1`, the Activity in [19] is on record as 100%; in [1], 100%; in [5] it was 65.5%; in experiment [6] it was 12.1%; in [9] it was 100%; in experiment [12], 91.7%. Also, the Activity in [20] is 38.9%; in experiment [17], 16.3%; in experiment [22] it was 0%. The inhibition of growth at 100 µg/mL was determined as 19% in experiment [4] and 71.7% in experiment [18]. Further, the inhibition of growth at 1000 µg/mL in experiment [7] was 45.1%; in experiment [16] it was 99.5%. Also, the inhibition of growth at 10 µg/mL in experiment [21] came to 42.6%.

Regarding `COc1cc(OC)c2c(c1)O/C(=C\c1ccccc1)C2=O`, the Activity was determined as 100% in experiment [19]; 100% in [1]; 75.7% in experiment [5]; 2.5% in experiment [6]; 100% in experiment [9]; 95% in [12]. Further, the Activity in experiment [20] amounted to 22.5%; in [17], 18.8%; in experiment [22], 0%. In addition, the inhibition of growth at 1500 g/ha in experiment [2] was found to be 15%; in [3], 0%; in experiment [8] it was 10%; in experiment [10], 0%; in experiment [11], 0%; in [13] it was 0%. Moreover, the values for the inhibition of growth at 1500 g/ha in [14] and in experiment [15] were 42.2% and 0%, respectively. In addition, the results for the inhibition of growth at 100 µg/mL in [4] and in experiment [18] were 0% and 88.5%, respectively. Further, the results for the inhibition of growth at 1000 µg/mL in experiment [7] and in [16] were 20% and 91.4%, respectively. Also, the inhibition of growth at 10 µg/mL in [21] worked out at 81.3%.

For `COc1cc(OC)c2c(c1)O/C(=C\c1ccc(OC)c(OC)c1)C2=O` [4,6,3',4'-TETRAMETHOXYAURONE], the Activity is recorded as 100% in [19]; 100% in experiment [1]; 69.6% in experiment [5]; 20% in experiment [6]; 100% in experiment [9]; 100% in experiment [12]. Besides, the Activity is 41.4% in experiment [20], 13% in experiment [17] and 0% in experiment [22]. In addition, the inhibition of growth at 100 µg/mL in [4] amounted to 0.9%; in experiment [18] it was 5.3%. The inhibition of growth at 1000 µg/mL in experiment [7] was 61.3%; in experiment [16], 77.9%.

With `CS(=O)(=O)c1ccc(C(=O)C2C(=O)CCCC2=O)c([N+](=O)[O-])c1` [MESOTRIONE], the inhibition of growth at 150 g/ha in [23] was found to be 86.7%; in experiment [24], 97.8%; in experiment [25] it was 100%; in experiment [26], 92.5%; in experiment [27], 100%; in experiment [28], 100%. Also, the inhibition of growth at 150 g/ha in experiment [29] is 97.9%; in [30], 100%. Moreover, the inhibition of growth at 100 µg/mL in [4] came out at 90.5%; in experiment [18], 89.7%. The figures for the inhibition of growth at 1000 µg/mL in [7] and in experiment [16] were 96.1% and 93.4%, respectively. Moreover, the inhibition of growth at 10 µg/mL in experiment [21] is 80.3%.

For `CCc1cccc(C)c1N(C(=O)CCl)C(C)COC` (stereo not given) [METOLACHOR], the inhibition of growth at 1500 g/ha was 100% in experiment [2]; 46.3% in experiment [3]; 100% in experiment [8]; 54% in experiment [10]; 100% in [11]; 100% in experiment [13]. The inhibition of growth at 1500 g/ha in experiment [14] was found to be 66.4%; in experiment [15] it was 88.3%.
